Reference: article PMC10411625, “Rationally designed stapled peptides allosterically inhibit PTBP1–RNA-binding” (Chemical Science, 2023)
Positions of bridges follow the written chain, without caps; N, C: chain ends. Non-standard residues stand in square brackets, D forms with d. Residues, ends and D or L forms follow the SMILES beside them. R8 = C=CCCCCCC[C@@](C)(N)C(=O)O; S5 = C=CCCC[C@](C)(N)C(=O)O

Legend:
[1] = biological target: T1, PTBP1 RRM12 (Homo sapiens, UniProt P26599); test: Competitive fluorescence polarization assay between RRM12 and RNA-2; format: binding; settings: Fig. 2C, 5 nM FAM-RNA-2, protein at 50-70 % probe binding, FP buffer pH 8.0, 20 °C, 30 min, n.b. given for inactive peptides; for Ki: read-out: Ki, competitive FP assay between RRM12 and RNA-2
T1 construct: (P57-V265); MBP (from pMAL vector); His tag; made in house; host or cells: E. coli BL21 DE3 RIL
T1 sequence (P26599 57-265): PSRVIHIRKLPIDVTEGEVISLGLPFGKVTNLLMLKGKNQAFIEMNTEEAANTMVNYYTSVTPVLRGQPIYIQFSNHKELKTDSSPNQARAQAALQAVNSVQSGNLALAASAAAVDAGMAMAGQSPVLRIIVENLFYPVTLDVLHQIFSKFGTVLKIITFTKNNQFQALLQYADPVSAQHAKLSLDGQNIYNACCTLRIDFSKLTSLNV
Description: (§1) For the initial design we used the i, i + 4 strategy where two (S)-pentenyl alanines (S5) were introduced in positions with three other amino acids in between. We picked three different amino acid pairs to replace with the S5 amino acids based on their orientation as observed in the NMR structures (P-2, P-3 and P-4, Fig. 2B and C).[25] To prevent the staple from disturbing the interaction between the ligand and the protein we chose positions facing away from the binding site forming the pairs Ala145/Ala149, Gln148/Gln152, and Ala149/Ala153. The three peptides were synthesized on Rink amide resin and the linear peptides were treated with a Grubbs catalyst to connect the S5 residues. To avoid a mixture of E/Z-diastereomers we reduced the alkene in the linker of the staple using a solution phase hydrogenation protocol.[43] The linear equivalent P-1 was synthesized for comparison but had to be extended on the C-terminus with an arginine residue to improve its solubility. The C-terminus is away from the binding surface and this modification was therefore not expected to have an impact on the binding affinity. The peptides were tested in a competitive fluorescence polarization assay using the RRM12 construct and RNA-2 (Fig. 2C and S2 ^†). […] As the staple is expected to stabilize the α-helical conformation we used circular dichroism (CD) spectroscopy to evaluate the helicity of the peptides. […] It is possible that although P-4 was more helical than P-3, the replacement of Gln148 with the hydrophobic linker disturbed the interaction since the side chain amide potentially interacts with the RRM1 surface. […]
size exclusion chromatography (Superdex 75 16/60 or 26/60) with SEC buffer (50 mM Tris, 200 mM NaCl). Protein homogeneity was assessed by the size exclusion chromatogram and purity was checked by SDS-PAGE analysis to be >= 90%.
The gene encoding for SRSF1-RRM12 (1-195) was subcloned into pOPIN-His expression vector and expressed in E. coli BL21 (DE3). A pre-culture of transformed bacteria was made followed by expression in LB-Medium (100 µg/ml Ampicillin, 1 mM IPTG, 18 °C, 160 rpm overnight) after growing the culture at 37 °C, 160 rpm to an OD600 of 0.6. The harvested cells (5000 x g, 4 °C, 15 min) were resuspended in Buffer ASRSF1 (50 mM Na2HPO4 pH 8.0, 300 mM KCl, 50 mM L-Arg, 50 mM L-Gly, 1.5 mM MgCl2) supplemented with 1 mM PMSF followed by lysis through sonification. The protein was purified using a HisTrap HP 5 ml column (GE-Healthcare) using a gradient of Buffer BSRSF1 (50 mM Na2HPO4 pH 8.0, 300 mM KCl, 50 mM L-Arg, 50 mM L-Gly, 1.5 mM MgCl2, 500 mM Imidazole) followed by dialysis into wash buffer (50 mM Na2HPO4 pH 8.0, 300 mM KCl, 50 mM L-Arg, 50 mM L-Gly, 1.5 mM MgCl2, 40 mM Imidazole) and a second run of the affinity column. The protein containing fractions were afterwards dialyzed into wash buffer with tag-cleavage using His-tagged 3C protease. The cleaved construct was subsequently used for a third affinity column run collecting the unbound fraction which was dialyzed into storage buffer (20 mM Na2HPO4 pH 8.0, 150 mM KCl, 50 mM L-Arg, 50 mM L-Gly, 1.5 mM MgCl2, 0.2 mM EDTA, 1 mM TCEP).
Purification of hnRNP A2/B1
The MBP-tagged hnRNP A2/B1 construct (1-251) was expressed from a pOPIN-His-MBP vector in E. coli BL21 (DE3) RIPL cells. A pre-culture in TB (0.01% lactose, 2mM MgSO4, 100 µg/ml ampicillin, 50 µg/ml chloramphenicol) was used to inoculate the expression culture with a starting OD600 of 0.05 at 37 °C. Expression was autoinduced at 37 °C for 4 h followed by expression over night at 25 °C. Harvested cells (5000 x g, 15 min, 4 °C) were resuspended in Buffer AhnRNPA2/B1 (50 mM HEPES pH 8.0, 300 mM NACl, 20 mM Imidazole, 1 mM TCEP) supplemented with 1 mM PMSF) and lysed with a microfluidizer.
Immobilized metal affinity chromatography was performed using a HisTrap FF crude 5 ml column. The loaded protein was washed with wash buffer (50 mM HEPES pH 8.0, 300 mM NaCl, 30 mM Imidazole, […]

[2] = Helicity by circular dichroism spectroscopy; format: physicochemical; settings: 50 µM peptide, 20 mM sodium phosphate pH 8.0, 10 mM NaF, 20 °C, triplicates, JASCO multivariate secondary structure analysis
Description: as §1
performed in FP bufferPTBP1. […]
serially diluted in the same buffer. […]
a final concentration of 10 nM probe. […]
the settings mentioned previously.
Fluorescence polarization assay with SRSF1
Fluorescence polarization was
Fluorescence polarization assay with hnRNPA2/B1
For the competitive assay 10 nM
Microscale thermophoresis […]
afterwards serially diluted into FP buffer.
The data was evaluated at […]
experiments were performed in duplicates.
Circular Dichroism Spectroscopy […]

SMILES	Ki [1]	Helicity by CD spectroscopy [2]	Ki, competitive FP assay between RRM12 and RNA-2 [1]
CC(=O)N[C@@H](CC(N)=O)C(=O)N[C@@H](CCC(N)=O)C(=O)N[C@@H](C)C(=O)N[C@@H](CCCNC(=N)N)C(=O)N[C@@H](C)C(=O)N[C@@H](CCC(N)=O)C(=O)N[C@@]1(C)CCCCCCCC[C@@](C)(C(=O)N[C@H](C(=O)N[C@@H](CC(N)=O)C(N)=O)C(C)C)NC(=O)[C@H](CCC(N)=O)NC(=O)[C@H](CC(C)C)NC(=O)[C@H](C)NC1=O [Peptide P-3]	156 µM	57.8%	
CC(=O)N[C@@H](CC(N)=O)C(=O)N[C@@H](CCC(N)=O)C(=O)N[C@@H](C)C(=O)N[C@@H](CCCNC(=N)N)C(=O)N[C@@H](C)C(=O)N[C@@]1(C)CCCCCCCC[C@@](C)(C(=O)N[C@@H](C)C(=O)N[C@H](C(=O)N[C@@H](CC(N)=O)C(N)=O)C(C)C)NC(=O)[C@H](CC(C)C)NC(=O)[C@H](C)NC(=O)[C@H](C)NC1=O [Peptide P-4]	275 µM	77.3%	
CC(=O)N[C@@H](CC(N)=O)C(=O)N[C@@H](CCC(N)=O)C(=O)N[C@@]1(C)CCCC=CCCCCCC[C@](C)(C(=O)N[C@@H](C)C(=O)N[C@H](C(=O)N[C@@H](CC(N)=O)C(N)=O)C(C)C)NC(=O)[C@H](CC(C)C)NC(=O)[C@H](C)NC(=O)[C@H](C)NC(=O)[C@H](CCC(N)=O)NC(=O)[C@H](C)NC(=O)[C@H](CCCNC(=N)N)NC1=O [Peptide P-5] (Ac-NQ[S5]RAQAAL[R8]AVN-NH2; staple 3-10)	24.9 µM		
CC(=O)N[C@@H](CC(N)=O)C(=O)N[C@@H](CCC(N)=O)C(=O)N[C@@]1(C)CCCC=CCCCC2(CCCC=CCCC[C@](C)(C(=O)N[C@H](C(=O)N[C@@H](CC(=O)O)C(N)=O)C(C)C)NC(=O)[C@H](CCC(N)=O)NC(=O)[C@H](CC(C)C)NC(=O)[C@H](C)NC2=O)NC(=O)[C@H](CCC(N)=O)NC(=O)[C@H](C)NC(=O)[C@H](CCCNC(=N)N)NC1=O (stereo partly drawn) [Peptide P-7]			n.b.
CC(=O)N[C@@H](CC(N)=O)C(=O)N[C@@H](CCC(N)=O)C(=O)N[C@@]1(C)CCCC=CCCCC2(CCCC=CCCC[C@](C)(C(=O)N[C@H](C(=O)N[C@@H](CC(N)=O)C(N)=O)C(C)C)NC(=O)[C@H](CCC(N)=O)NC(=O)[C@H](CC(C)C)NC(=O)[C@H](C)NC2=O)NC(=O)[C@H](CCC(N)=O)NC(=O)[C@H](C)NC(=O)[C@H](CCNC(=N)N)NC1=O (stereo partly drawn) [Peptide P-8]			n.b.
CC(=O)N[C@@H](CC(N)=O)C(=O)N[C@@H](CCC(N)=O)C(=O)N[C@@]1(C)CCCC=CCCCC2(CCCC=CCCC[C@](C)(C(=O)N[C@H](C(=O)N[C@@H](CC(N)=O)C(N)=O)C(C)C)NC(=O)[C@H](CCC(N)=O)NC(=O)[C@H](CC(N)=O)NC(=O)[C@H](C)NC2=O)NC(=O)[C@H](CCC(N)=O)NC(=O)[C@H](C)NC(=O)[C@H](CCCNC(=N)N)NC1=O (stereo partly drawn) [Peptide P-9]			n.b.
CC(=O)N[C@H](C(=O)N[C@@H](CCC(N)=O)C(=O)N[C@@]1(C)CCCC=CCCCC2(CCCC=CCCC[C@](C)(C(=O)N[C@H](C(=O)N[C@@H](CC(N)=O)C(N)=O)C(C)C)NC(=O)[C@H](CCC(N)=O)NC(=O)[C@H](CC(C)C)NC(=O)[C@H](C)NC2=O)NC(=O)[C@H](CCC(N)=O)NC(=O)[C@H](C)NC(=O)[C@H](CCCNC(=N)N)NC1=O)C(C)C (stereo partly drawn) [Peptide P-10]	22.4 ± 4.5 µM		
